# Test results as given in EP0369657A2, “Chromogenic substrate for esterase and immunoassay using same” (Becton Dickinson and Company, priority 1988, dated 1990).
# System: rabbit liver esterase (RLE)
# Experiment: Stopping of DCIPB color formation in the dual enzyme assay for Influenza A
# Assay type: biochemical
# Conditions: added after five minute incubation with DCIPB; TFAP as 40 µL of 1 mM in 50 mM Tris, pH 7.5; read at 620 nm
# Description: A mixture of the blocked inhibitor from Example II (1 x 10⁻⁴M) and rabbit liver esterase (RLE) (5 x 10⁻⁹M) in 50 mM diethanolamine (DEOA), pH 9.0 was added to each well (150 µL), and incubated at room temperature for 20 minutes.
# A solution of DCIPB (0.35 mM in 50 mM Tris, pH 7.5, containing 20% methanol) was added to each well (150 µL). After a five minute incubation, 40 µL of a solution of 1 mM 1,1,1-trifluoroacetophenone (TFAP) in 50 mM Tris, pH 7.5, was added to stop the reaction.
# The same effect was achieved by the addition of free inhibitor (product B from Example II). After "stopping," test wells having a high concentration of antigen remained colorless for several hours.
structure (smiles),measurement,value
"O=C(c1ccccc1)C(F)(F)F [1,1,1-trifluoroacetophenone (TFAP), 1,1,1-trifluoroacetophenone]",effect on color formation process,stopped the color formation process
"O=C(CCc1ccc(O)cc1)C(F)(F)F [compound 3, 1,1,1-trifluoro-4-(4-hydroxyphenyl)-2-butanone]",effect on color formation process,same effect
